Measurements as given in patent US10294202B2, “Pyrrolidinones as herbicides” (FMC Corporation, priority 2013, dated 2019).

Experiments:
oilseed rape = experiment: Test C pre-/postemergence herbicide test; format: in vivo, Brassica napus
Outline: (§1)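 Greenhouse plants scored visually against untreated controls 13–15 days after treatment, 0 = no effect, 100 = complete control. Test chemicals in a non-phytotoxic solvent with surfactant were applied either to soil (loam/sand) at planting or to foliage of 1- to 4-leaf plants, 2–18 cm tall.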

blackgrass = experiment: Test C pre-/postemergence herbicide test; format: in vivo, Alopecurus myosuroides
Outline: as §1

corn = experiment: Test A pre-/postemergence herbicide test; format: in vivo, Zea mays; conditions: Postemergence
Outline: (§2)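 Visual 0–100 ratings (100 = complete control) made about 10 days after treatment, greenhouse-held plants compared with untreated controls. Treatments: postemergence sprays on one- to two-leaf plants (2–10 cm tall) and preemergence directed soil sprays after planting in loam–sand, chemicals formulated in non-phytotoxic solvent containing surfactant.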

foxtail, giant = experiment: Test C pre-/postemergence herbicide test; format: in vivo, Setaria faberii
Outline: as §1

giant foxtail = experiment: Test A pre-/postemergence herbicide test; format: in vivo, Setaria faberii
Outline: as §2

johnsongrass = experiment: Test C pre-/postemergence herbicide test; format: in vivo, Sorghum halepense
Outline: as §1

rice = experiment: Test B flooded paddy test; format: in vivo, Oryza sativa; conditions: 500 g ai/ha, Flood; scale of 0 to 100 where 0 is no effect and 100 is complete control
Outline: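 Plants grown to 2-leaf stage; pots flooded 3 cm above soil and compound applied directly into paddy water, depth held throughout. Visual rating against untreated controls after 13 to 15 days in greenhouse, 0 (no effect) to 100 (complete control).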

nutsedge, yellow = experiment: Test C pre-/postemergence herbicide test; format: in vivo, Cyperus esculentus
Outline: as §1

pigweed = experiment: Test A pre-/postemergence herbicide test; format: in vivo, Amaranthus retroflexus
Outline: as §2

velvetleaf = experiment: Test C pre-/postemergence herbicide test; format: in vivo, Abutilon theophrasti
Outline: as §1

barnyardgrass = experiment: Test A pre-/postemergence herbicide test; format: in vivo, Echinochloa crus-galli
Outline: as §2

[1] = Postemergence, 31 g ai/ha, scale 0 to 100 (0 no effect, 100 complete control)
[2] = Postemergence, 62 g ai/ha, scale 0 (no effect) to 100 (complete control)
[3] = Postemergence, 125 g ai/ha, scale 0 to 100 (0 no effect, 100 complete control)
[4] = Postemergence, 250 g ai/ha, scale 0 to 100 (0 no effect, 100 complete control)
[5] = Preemergence, 31 g ai/ha, scale 0 to 100, 0 is no effect and 100 is complete control
[6] = Preemergence, 62 g ai/ha, scale 0 to 100 (0 no effect, 100 complete control)
[7] = Preemergence, 125 g ai/ha, scale 0 to 100 (0 no effect, 100 complete control)
[8] = 125 g ai/ha, 0 to 100 scale, 0 is no effect, 100 is complete control
[9] = Postemergence, 125 g ai/ha, 0 to 100 scale, 0 is no effect, 100 is complete control
[10] = Postemergence, 500 g ai/ha, 0 to 100 scale (0 no effect, 100 complete control)
[11] = Preemergence, 125 g ai/ha, 0 to 100 scale where 0 is no effect and 100 is complete control
[12] = preemergence, 500 g ai/ha, 0 to 100 scale, 0 is no effect and 100 is complete control
[13] = 125 g ai/ha, visual rating, 0 to 100 scale, 0 no effect, 100 complete control, approximately 10 days, preemergence

O=C1NCC(c2cc(F)cc(F)c2)C1C(=O)Nc1cccc(F)c1F (racemic) [Compound 279]
Plant response rating, Oilseed Rape (oilseed rape; [1]): 0 | Plant response rating, Oilseed Rape (oilseed rape; [2]): 30 | Plant response rating, Oilseed Rape (oilseed rape; [3]): 0 | Plant response rating, Oilseed Rape (oilseed rape; [4]): 0 | Oilseed Rape plant response rating (oilseed rape; [5]): 0 | Oilseed Rape plant response rating (oilseed rape; [6]): 0 | Plant response rating, Oilseed Rape (oilseed rape; [7]): 30 | Plant response rating (scale of 0 to 100), Oilseed Rape (oilseed rape; Preemergence, 250 g ai/ha): 60 | Plant response rating, Blackgrass (blackgrass; [1]): 0 | Plant response rating, Blackgrass (blackgrass; [2]): 0 | Plant response rating, Blackgrass (blackgrass; [3]): 0 | Plant response rating, Blackgrass (blackgrass; [4]): 0 | Blackgrass plant response rating (blackgrass; [5]): 0 | Blackgrass plant response rating (blackgrass; [6]): 0 | Plant response rating, Blackgrass (blackgrass; [7]): 30 | Plant response rating (scale of 0 to 100), Blackgrass (blackgrass; Preemergence, 250 g ai/ha): 85 | Plant response rating, Corn (corn; [8]): 40 | Plant response rating, Corn (corn; 500 g ai/ha, 0 to 100 scale (0 no effect, 100 complete control)): 70 | Plant response rating, Foxtail, Giant (foxtail, giant; [1]): 0 | Plant response rating, Foxtail, Giant (foxtail, giant; [2]): 30 | Plant response rating, Foxtail, Giant (foxtail, giant; [3]): 90 | Plant response rating, Foxtail, Giant (foxtail, giant; [4]): 90 | Foxtail, Giant plant response rating (foxtail, giant; [5]): 90 | Foxtail, Giant plant response rating (foxtail, giant; [6]): 95 | Plant response rating, Foxtail, Giant (foxtail, giant; [7]): 98 | Plant response rating (scale of 0 to 100), Foxtail, Giant (foxtail, giant; Preemergence, 250 g ai/ha): 98 | Plant response rating, Foxtail, Giant (giant foxtail; [9]): 80 | Plant response rating, Foxtail, Giant (giant foxtail; [10]): 90 | Plant response rating, Foxtail, Giant (giant foxtail; [11]): 90 | Plant response rating, Foxtail, Giant (giant foxtail; [12]): 90 | Plant response rating, Johnsongrass (johnsongrass; [1]): 0 | Plant response rating, Johnsongrass (johnsongrass; [2]): 0 | Plant response rating, Johnsongrass (johnsongrass; [3]): 0 | Plant response rating, Johnsongrass (johnsongrass; [4]): 0 | Johnsongrass plant response rating (johnsongrass; [5]): 0 | Johnsongrass plant response rating (johnsongrass; [6]): 25 | Plant response rating, Johnsongrass (johnsongrass; [7]): 70 | Plant response rating (scale of 0 to 100), Johnsongrass (johnsongrass; Preemergence, 250 g ai/ha): 80 | Plant response rating, Rice (rice): 10 | Plant response rating, Nutsedge, Yellow (nutsedge, yellow; [1]): 0 | Plant response rating, Nutsedge, Yellow (nutsedge, yellow; [2]): 0 | Plant response rating, Nutsedge, Yellow (nutsedge, yellow; [3]): 0 | Plant response rating, Nutsedge, Yellow (nutsedge, yellow; [4]): 0 | Nutsedge, Yellow plant response rating (nutsedge, yellow; [5]): 0 | Nutsedge, Yellow plant response rating (nutsedge, yellow; [6]): 0 | Plant response rating, Nutsedge, Yellow (nutsedge, yellow; [7]): 0 | Plant response rating (scale of 0 to 100), Nutsedge, Yellow (nutsedge, yellow; Preemergence, 250 g ai/ha): 55 | Plant response rating, Pigweed (pigweed; Postemergence, 125 g ai/ha, visual rating on 0 to 100 scale (0 no effect, 100 complete control), approx. 10 days): 0 | Plant response rating, Pigweed (pigweed; [10]): 0 | Plant response rating, Pigweed (pigweed; [11]): 0 | Plant response rating, Pigweed (pigweed; [12]): 40 | Plant response rating, Velvetleaf (velvetleaf; [1]): 0 | Plant response rating, Velvetleaf (velvetleaf; [2]): 10 | Plant response rating, Velvetleaf (velvetleaf; [3]): 10 | Plant response rating, Velvetleaf (velvetleaf; [4]): 10 | Velvetleaf plant response rating (velvetleaf; [5]): 0 | Velvetleaf plant response rating (velvetleaf; [6]): 0 | Plant response rating, Velvetleaf (velvetleaf; [7]): 0 | Plant response rating (scale of 0 to 100), Velvetleaf (velvetleaf; Preemergence, 250 g ai/ha): 30 | Plant response rating, Barnyardgrass (barnyardgrass; [9]): 80 | Plant response rating, Barnyardgrass (barnyardgrass; [10]): 90 | Plant response rating, Barnyardgrass (barnyardgrass; [11]): 80 | Plant response rating, Barnyardgrass (barnyardgrass; [12]): 90

O=C1NCC(c2cccc(OC(F)F)c2)C1C(=O)Nc1ccccc1F (stereo not drawn) [Compound 223]
Plant response rating, Oilseed Rape (oilseed rape; [1]): 0 | Plant response rating, Oilseed Rape (oilseed rape; [2]): 0 | Plant response rating, Oilseed Rape (oilseed rape; [3]): 0 | Plant response rating, Oilseed Rape (oilseed rape; [4]): 10 | Oilseed Rape plant response rating (oilseed rape; [5]): 0 | Oilseed Rape plant response rating (oilseed rape; [6]): 0 | Plant response rating, Oilseed Rape (oilseed rape; [7]): 0 | Plant response rating (scale of 0 to 100), Oilseed Rape (oilseed rape; Preemergence, 250 g ai/ha): 5 | Plant response rating, Blackgrass (blackgrass; [1]): 0 | Plant response rating, Blackgrass (blackgrass; [2]): 0 | Plant response rating, Blackgrass (blackgrass; [3]): 0 | Plant response rating, Blackgrass (blackgrass; [4]): 0 | Blackgrass plant response rating (blackgrass; [5]): 35 | Plant response rating, Blackgrass (blackgrass; Preemergence, 62 g ai/ha, scale 0 to 100): 35 | Plant response rating, Blackgrass (blackgrass; [7]): 85 | Plant response rating (scale of 0 to 100), Blackgrass (blackgrass; Preemergence, 250 g ai/ha): 85 | Plant response rating, Corn (corn; [8]): 0 | Corn plant response rating (0 to 100 scale, 0 is no effect, 100 is complete control) (corn; 500 g ai/ha): 50 | Plant response rating, Foxtail, Giant (foxtail, giant; [1]): 0 | Plant response rating, Foxtail, Giant (foxtail, giant; [2]): 35 | Plant response rating, Foxtail, Giant (foxtail, giant; [3]): 30 | Plant response rating, Foxtail, Giant (foxtail, giant; [4]): 35 | Foxtail, Giant plant response rating (foxtail, giant; [5]): 70 | Foxtail, Giant plant response rating (foxtail, giant; [6]): 85 | Plant response rating, Foxtail, Giant (foxtail, giant; [7]): 90 | Plant response rating (scale of 0 to 100), Foxtail, Giant (foxtail, giant; Preemergence, 250 g ai/ha): 98 | Plant response rating, Foxtail, Giant (giant foxtail; [13]): 90 | Plant response rating, Foxtail, Giant (giant foxtail; [9]): 80 | Foxtail, Giant plant response rating (0 to 100 scale, 0 is no effect, 100 is complete control) (giant foxtail; Postemergence, 500 g ai/ha): 90 | Plant response rating, Foxtail, Giant (giant foxtail; [12]): 90 | Plant response rating, Johnsongrass (johnsongrass; [1]): 0 | Plant response rating, Johnsongrass (johnsongrass; [2]): 0 | Plant response rating, Johnsongrass (johnsongrass; [3]): 0 | Plant response rating, Johnsongrass (johnsongrass; [4]): 0 | Johnsongrass plant response rating (johnsongrass; [5]): 0 | Johnsongrass plant response rating (johnsongrass; [6]): 0 | Plant response rating, Johnsongrass (johnsongrass; [7]): 35 | Plant response rating (scale of 0 to 100), Johnsongrass (johnsongrass; Preemergence, 250 g ai/ha): 55 | Plant response rating, Rice (rice): 0 | Plant response rating, Nutsedge, Yellow (nutsedge, yellow; [1]): 0 | Plant response rating, Nutsedge, Yellow (nutsedge, yellow; [2]): 0 | Plant response rating, Nutsedge, Yellow (nutsedge, yellow; [3]): 0 | Plant response rating, Nutsedge, Yellow (nutsedge, yellow; [4]): 0 | Nutsedge, Yellow plant response rating (nutsedge, yellow; [5]): 100 | Nutsedge, Yellow plant response rating (nutsedge, yellow; [6]): 0 | Plant response rating, Nutsedge, Yellow (nutsedge, yellow; [7]): 0 | Plant response rating (scale of 0 to 100), Nutsedge, Yellow (nutsedge, yellow; Preemergence, 250 g ai/ha): 0 | Plant response rating, Pigweed (pigweed; [13]): 20 | Plant response rating, Pigweed (pigweed; [9]): 40 | Pigweed plant response rating (0 to 100 scale, 0 is no effect, 100 is complete control) (pigweed; Postemergence, 500 g ai/ha): 60 | Plant response rating, Pigweed (pigweed; [12]): 50 | Plant response rating, Velvetleaf (velvetleaf; [1]): 0 | Plant response rating, Velvetleaf (velvetleaf; [2]): 0 | Plant response rating, Velvetleaf (velvetleaf; [3]): 0 | Plant response rating, Velvetleaf (velvetleaf; [4]): 20 | Velvetleaf plant response rating (velvetleaf; [5]): 0 | Velvetleaf plant response rating (velvetleaf; [6]): 0 | Plant response rating, Velvetleaf (velvetleaf; [7]): 25 | Plant response rating (scale of 0 to 100), Velvetleaf (velvetleaf; Preemergence, 250 g ai/ha): 35 | Plant response rating, Barnyardgrass (barnyardgrass; [13]): 90 | Plant response rating, Barnyardgrass (barnyardgrass; [9]): 80 | Barnyardgrass plant response rating (0 to 100 scale, 0 is no effect, 100 is complete control) (barnyardgrass; Postemergence, 500 g ai/ha): 80 | Plant response rating, Barnyardgrass (barnyardgrass; [12]): 90
